Laboratory results published in patent publication US10294202B2, “Pyrrolidinones as herbicides” (FMC Corporation, priority 2013, dated 2019).

Assays:
oilseed rape = assay: Test C pre-/postemergence herbicide test; type: in vivo, Brassica napus; conditions: Preemergence; for Plant response rating (scale of 0 to 100), Oilseed Rape: 250 g ai/ha
Procedure, shortened: (§1)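 Greenhouse plants scored visually against untreated controls 13–15 days after treatment, 0 = no effect, 100 = complete control. Test chemicals in a non-phytotoxic solvent with surfactant were applied either to soil (loam/sand) at planting or to foliage of 1- to 4-leaf plants, 2–18 cm tall.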

soybean = assay: Test C pre-/postemergence herbicide test; type: in vivo, Glycine max
Procedure, shortened: as §1

johnsongrass = assay: Test C pre-/postemergence herbicide test; type: in vivo, Sorghum halepense
Procedure, shortened: as §1

ragweed = assay: Test C pre-/postemergence herbicide test; type: in vivo, Ambrosia elatior
Procedure, shortened: as §1

sedge, umbrella = assay: Test B flooded paddy test; type: in vivo, Cyperus difformis; conditions: Flood, scale of 0 to 100 where 0 is no effect and 100 is complete control
Procedure, shortened: (§2)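 First, plants reach the 2-leaf stage; next, pots are flooded to 3 cm and compound is delivered into the water; finally, after 13 to 15 greenhouse days at constant depth, injury is graded visually from 0 to 100 against controls.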

barnyardgrass = assay: Test B flooded paddy test; type: in vivo, Echinochloa crus-galli; conditions: Flood, scale of 0 to 100 where 0 is no effect and 100 is complete control
Procedure, shortened: as §2

nutsedge, yellow = assay: Test C pre-/postemergence herbicide test; type: in vivo, Cyperus esculentus
Procedure, shortened: as §1

rice = assay: Test B flooded paddy test; type: in vivo, Oryza sativa; conditions: Flood, scale of 0 to 100 where 0 is no effect and 100 is complete control
Procedure, shortened: as §2

pigweed = assay: Test C pre-/postemergence herbicide test; type: in vivo, Amaranthus retroflexus
Procedure, shortened: as §1

wheat = assay: Test A pre-/postemergence herbicide test; type: in vivo, Triticum aestivum
Procedure, shortened: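 Visual 0–100 ratings (100 = complete control) made about 10 days after treatment, greenhouse-held plants compared with untreated controls. Treatments: postemergence sprays on one- to two-leaf plants (2–10 cm tall) and preemergence directed soil sprays after planting in loam–sand, chemicals formulated in non-phytotoxic solvent containing surfactant.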

ryegrass, Italian = assay: Test C pre-/postemergence herbicide test; type: in vivo, Lolium multiflorum
Procedure, shortened: as §1

ducksalad = assay: Test B flooded paddy test; type: in vivo, Heteranthera limosa; conditions: Flood, scale of 0 to 100 where 0 is no effect and 100 is complete control
Procedure, shortened: as §2

corn = assay: Test C pre-/postemergence herbicide test; type: in vivo, Zea mays
Procedure, shortened: as §1

[1] = 31 g ai/ha, scale 0 to 100, 0 is no effect and 100 is complete control
[2] = 125 g ai/ha, scale 0 to 100 (0 no effect, 100 complete control)
[3] = Preemergence, 31 g ai/ha, scale 0 to 100, 0 is no effect and 100 is complete control
[4] = Preemergence, 62 g ai/ha, scale 0 to 100 (0 no effect, 100 complete control)
[5] = Preemergence, 125 g ai/ha, scale 0 to 100 (0 no effect, 100 complete control)
[6] = Postemergence, 500 g ai/ha, 0 to 100 scale (0 no effect, 100 complete control)
[7] = Preemergence, 62 g ai/ha, scale 0 to 100
[8] = Postemergence, 31 g ai/ha, scale 0 (no effect) to 100 (complete control)
[9] = Postemergence, 62 g ai/ha, scale 0 to 100 (0 no effect, 100 complete control)
[10] = Postemergence, 125 g ai/ha, scale 0 to 100 (0 no effect, 100 complete control)
[11] = Postemergence, 250 g ai/ha, scale 0 to 100 (0 no effect, 100 complete control)

In the case of O=C1NCC(c2ccc(C(F)(F)F)nc2)C1C(=O)Nc1ccccc1F (racemic) [Compound 262], the “Oilseed Rape plant response rating” value (oilseed rape; [1]) was 0, the “Oilseed Rape plant response rating” value (oilseed rape; 62 g ai/ha, scale 0 to 100 (0 no effect, 100 complete control)) was 35 and the “Plant response rating, Oilseed Rape” value (oilseed rape; [2]) was 35. For the same compound, the “Plant response rating (scale of 0 to 100), Oilseed Rape” value (oilseed rape) was 70, the “Soybean plant response rating” value (soybean; [3]) was 0 and the “Soybean plant response rating” value (soybean; [4]) was 0. For the same compound, the “Plant response rating, Soybean” value (soybean; [5]) was 0, the “Plant response rating (scale of 0 to 100), Soybean” value (soybean; Preemergence, 250 g ai/ha) was 0 and the “Johnsongrass plant response rating” value (johnsongrass; [3]) was 0. For the same compound, the “Johnsongrass plant response rating” value (johnsongrass; [4]) was 0, the “Plant response rating, Johnsongrass” value (johnsongrass; [5]) was 0 and the “Plant response rating (scale of 0 to 100), Johnsongrass” value (johnsongrass; Preemergence, 250 g ai/ha) was 0. For the same compound, the “Ragweed plant response rating” value (ragweed; [3]) was 0, the “Ragweed plant response rating” value (ragweed; [4]) was 20 and the “Plant response rating, Ragweed” value (ragweed; [5]) was 10. For the same compound, the “Plant response rating (scale of 0 to 100), Ragweed” value (ragweed; Preemergence, 250 g ai/ha) was 75, the “Plant response rating, Sedge, Umbrella” value (sedge, umbrella; 1000 g ai/ha) was 0 and the “Plant response rating, Barnyardgrass” value (barnyardgrass; 1000 g ai/ha) was 20. The “Nutsedge, Yellow plant response rating” value (nutsedge, yellow; [3]) was 75, the “Nutsedge, Yellow plant response rating” value (nutsedge, yellow; [4]) was 0 and the “Plant response rating, Nutsedge, Yellow” value (nutsedge, yellow; [5]) was 0. The “Plant response rating (scale of 0 to 100), Nutsedge, Yellow” value (nutsedge, yellow; Preemergence, 250 g ai/ha) was 0, the “Plant response rating, Rice” value (rice; 1000 g ai/ha) was 0 and the “Pigweed plant response rating” value (pigweed; [3]) was 0. For the same compound, the “Pigweed plant response rating” value (pigweed; [4]) was 0, the “Plant response rating, Pigweed” value (pigweed; [5]) was 0 and the “Plant response rating (scale of 0 to 100), Pigweed” value (pigweed; Preemergence, 250 g ai/ha) was 5. The “Plant response rating, Wheat” value (wheat; Postemergence, 125 g ai/ha, 0 to 100 scale, 0 is no effect, 100 is complete control) was 0, the “Plant response rating, Wheat” value (wheat; [6]) was 0 and the “Plant response rating, Wheat” value (wheat; Preemergence, 125 g ai/ha, 0 to 100 scale where 0 is no effect and 100 is complete control) was 0. For the same compound, the “Plant response rating, Wheat” value (wheat; preemergence, 500 g ai/ha, 0 to 100 scale, 0 is no effect and 100 is complete control) was 0, the “Ryegrass, Italian plant response rating” value (ryegrass, Italian; [3]) was 0 and the “Ryegrass, Italian plant response rating” value (ryegrass, Italian; [4]) was 0. The “Plant response rating, Ryegrass, Italian” value (ryegrass, Italian; [5]) was 0, the “Plant response rating (scale of 0 to 100), Ryegrass, Italian” value (ryegrass, Italian; Preemergence, 250 g ai/ha) was 0 and the “Plant response rating, Ducksalad” value (ducksalad; 1000 g ai/ha) was 100. For the same compound, the “Corn plant response rating” value (corn; [3]) was 0, the “Corn plant response rating” value (corn; [4]) was 0 and the “Plant response rating, Corn” value (corn; [5]) was 10. The “Plant response rating (scale of 0 to 100), Corn” value (corn; Preemergence, 250 g ai/ha) was 10.

For O=C1NCC(c2ccc(F)c(C(F)(F)F)c2)C1C(=O)Nc1ccccc1C(F)(F)F (racemic) [Compound 78], the “Oilseed Rape plant response rating” value (oilseed rape; [1]) was 0, the “Plant response rating, Oilseed Rape” value (oilseed rape; 62 g ai/ha, scale 0 to 100) was 10 and the “Plant response rating, Oilseed Rape” value (oilseed rape; [2]) was 10. For the same compound, the “Plant response rating (scale of 0 to 100), Oilseed Rape” value (oilseed rape) was 75, the “Soybean plant response rating” value (soybean; [3]) was 0 and the “Plant response rating, Soybean” value (soybean; [7]) was 0. The “Plant response rating, Soybean” value (soybean; [5]) was 0, the “Plant response rating (scale of 0 to 100), Soybean” value (soybean; Preemergence, 250 g ai/ha) was 0 and the “Johnsongrass plant response rating” value (johnsongrass; [3]) was 0. For the same compound, the “Plant response rating, Johnsongrass” value (johnsongrass; [7]) was 0, the “Plant response rating, Johnsongrass” value (johnsongrass; [5]) was 15 and the “Plant response rating (scale of 0 to 100), Johnsongrass” value (johnsongrass; Preemergence, 250 g ai/ha) was 60. For the same compound, the “Plant response rating, Sedge, Umbrella” value (sedge, umbrella; 250 g ai/ha) was 0, the “Plant response rating, Barnyardgrass” value (barnyardgrass; 250 g ai/ha) was 0 and the “Nutsedge, Yellow plant response rating” value (nutsedge, yellow; [3]) was 0. For the same compound, the “Plant response rating, Nutsedge, Yellow” value (nutsedge, yellow; [7]) was 0, the “Plant response rating, Nutsedge, Yellow” value (nutsedge, yellow; [5]) was 0 and the “Plant response rating (scale of 0 to 100), Nutsedge, Yellow” value (nutsedge, yellow; Preemergence, 250 g ai/ha) was 0. For the same compound, the “Plant response rating, Rice” value (rice; 250 g ai/ha) was 0, the “Pigweed plant response rating” value (pigweed; [3]) was 0 and the “Plant response rating, Pigweed” value (pigweed; [7]) was 40. The “Plant response rating, Pigweed” value (pigweed; [5]) was 40, the “Plant response rating (scale of 0 to 100), Pigweed” value (pigweed; Preemergence, 250 g ai/ha) was 40 and the “Plant response rating, Wheat” value (wheat; Postemergence, 125 g ai/ha, 0 to 100 scale, 0 no effect, 100 complete control) was 40. The “Plant response rating, Wheat” value (wheat; [6]) was 50, the “Wheat plant response rating” value (wheat; Preemergence, 125 g ai/ha, visual rating on 0 to 100 scale (0 no effect, 100 complete control)) was 0 and the “Plant response rating, Wheat” value (wheat; preemergence, 500 g ai/ha, 0 to 100 scale) was 0. The “Ryegrass, Italian plant response rating” value (ryegrass, Italian; [3]) was 0, the “Plant response rating, Ryegrass, Italian” value (ryegrass, Italian; [7]) was 40 and the “Plant response rating, Ryegrass, Italian” value (ryegrass, Italian; [5]) was 40. The “Plant response rating (scale of 0 to 100), Ryegrass, Italian” value (ryegrass, Italian; Preemergence, 250 g ai/ha) was 45, the “Plant response rating, Ducksalad” value (ducksalad; 250 g ai/ha) was 85 and the “Corn plant response rating” value (corn; [3]) was 0. The “Plant response rating, Corn” value (corn; [7]) was 0, the “Plant response rating, Corn” value (corn; [5]) was 40 and the “Plant response rating (scale of 0 to 100), Corn” value (corn; Preemergence, 250 g ai/ha) was 60.

In the case of O=C1NCC(c2cc(F)c(F)c(F)c2)C1C(=O)Nc1ccccc1F (racemic) [Compound 34], the “Plant response rating, Soybean” value (soybean; [8]) was 0, the “Plant response rating, Soybean” value (soybean; [9]) was 0 and the “Plant response rating, Soybean” value (soybean; [10]) was 5. The “Plant response rating, Soybean” value (soybean; [11]) was 10, the “Plant response rating, Soybean” value (soybean; [7]) was 0 and the “Plant response rating, Soybean” value (soybean; [5]) was 5. The “Plant response rating, Johnsongrass” value (johnsongrass; [8]) was 0, the “Plant response rating, Johnsongrass” value (johnsongrass; [9]) was 0 and the “Plant response rating, Johnsongrass” value (johnsongrass; [10]) was 0. For the same compound, the “Plant response rating, Johnsongrass” value (johnsongrass; [11]) was 0, the “Plant response rating, Johnsongrass” value (johnsongrass; [7]) was 10 and the “Plant response rating, Johnsongrass” value (johnsongrass; [5]) was 10. For the same compound, the “Plant response rating, Ragweed” value (ragweed; [8]) was 5, the “Plant response rating, Ragweed” value (ragweed; [9]) was 5 and the “Plant response rating, Ragweed” value (ragweed; [10]) was 5. For the same compound, the “Plant response rating, Ragweed” value (ragweed; [11]) was 5, the “Plant response rating, Ragweed” value (ragweed; [7]) was 0 and the “Plant response rating, Ragweed” value (ragweed; [5]) was 0. The “Plant response rating, Sedge, Umbrella” value (sedge, umbrella; 250 g ai/ha) was 0, the “Plant response rating, Barnyardgrass” value (barnyardgrass; 250 g ai/ha) was 0 and the “Plant response rating, Nutsedge, Yellow” value (nutsedge, yellow; [8]) was 5. The “Plant response rating, Nutsedge, Yellow” value (nutsedge, yellow; [9]) was 5, the “Plant response rating, Nutsedge, Yellow” value (nutsedge, yellow; [10]) was 10 and the “Plant response rating, Nutsedge, Yellow” value (nutsedge, yellow; [11]) was 10. The “Plant response rating, Nutsedge, Yellow” value (nutsedge, yellow; [7]) was 0, the “Plant response rating, Nutsedge, Yellow” value (nutsedge, yellow; [5]) was 0 and the “Plant response rating, Rice” value (rice; 250 g ai/ha) was 0. The “Plant response rating, Pigweed” value (pigweed; [8]) was 0, the “Plant response rating, Pigweed” value (pigweed; [9]) was 0 and the “Plant response rating, Pigweed” value (pigweed; [10]) was 0. The “Plant response rating, Pigweed” value (pigweed; [11]) was 10, the “Plant response rating, Pigweed” value (pigweed; [7]) was 0 and the “Plant response rating, Pigweed” value (pigweed; [5]) was 0. For the same compound, the “Plant response rating, Wheat” value (wheat; Postemergence, 1000 g ai/ha, 0 to 100 scale (0 no effect, 100 complete control)) was 70, the “Plant response rating, Wheat” value (wheat; Preemergence, 1000 g ai/ha, visual rating on 0 to 100 scale (0 no effect, 100 complete control), approx. 10 days) was 60 and the “Plant response rating, Ryegrass, Italian” value (ryegrass, Italian; [8]) was 0. The “Plant response rating, Ryegrass, Italian” value (ryegrass, Italian; [9]) was 0, the “Plant response rating, Ryegrass, Italian” value (ryegrass, Italian; [10]) was 0 and the “Plant response rating, Ryegrass, Italian” value (ryegrass, Italian; [11]) was 0. For the same compound, the “Plant response rating, Ryegrass, Italian” value (ryegrass, Italian; [7]) was 0, the “Plant response rating, Ryegrass, Italian” value (ryegrass, Italian; [5]) was 20 and the “Plant response rating, Ducksalad” value (ducksalad; 250 g ai/ha) was 95. The “Plant response rating, Corn” value (corn; [8]) was 0, the “Plant response rating, Corn” value (corn; [9]) was 0 and the “Plant response rating, Corn” value (corn; [10]) was 0. The “Plant response rating, Corn” value (corn; [11]) was 0, the “Corn plant response rating” value (corn; Preemergence, 31 g ai/ha, scale 0 to 100 (0 no effect, 100 complete control)) was 0 and the “Plant response rating, Corn” value (corn; [7]) was 0. For the same compound, the “Plant response rating, Corn” value (corn; [5]) was 0 and the “Plant response rating, Corn” value (corn; Preemergence, 250 g ai/ha, scale 0 to 100 (0 no effect, 100 complete control)) was 10.
